Reference: ChEMBL document CHEMBL1156327, “Synthesis and biological evaluation of anti-1-amino-2-[18F]fluoro-cyclobutyl-1-carboxylic acid (anti-2-[18F]FACBC) in rat 9L gliosarcoma” (Bioorg Med Chem Lett, 2010)
Values belong to the compound of their own block, whether it stands above or below them.

Key:
[1] = Ratio of drug level in Fisher 344 rat brain to rat 9L tumor cells implanted in Fisher 344 rat after 120 mins; assay type: ADME, cell-based; conditions: 2 h
[2] = Drug uptake in rat 9L cells xenografted Fisher 344 rat brain measured per gram of tissue; assay type: ADME, cell-based; conditions: Fischer 344, rat, read-out: Drug uptake
[3] = Drug uptake in rat 9L tumor implanted in Fischer 344 rat after 30 mins relative to control; assay type: ADME, Neoplasm; conditions: read-out: Drug uptake
[4] = Ratio of drug level in Fisher 344 rat brain to rat 9L tumor cells implanted in Fisher 344 rat after 60 mins; assay type: ADME, cell-based; conditions: 1 h
[5] = Drug uptake in rat 9L tumor implanted in Fischer 344 rat after 15 mins relative to control; assay type: ADME, Neoplasm; conditions: read-out: Drug uptake
[6] = Drug uptake in rat 9L tumor implanted in Fischer 344 rat after 60 mins relative to control; assay type: ADME, Neoplasm; conditions: read-out: Drug uptake
[7] = Drug uptake in rat 9L tumor implanted in Fischer 344 rat after 120 mins relative to control; assay type: ADME, Neoplasm; conditions: read-out: Drug uptake
9L = assay: Cellular uptake in rat 9L cells after 30 mins measured per 0.5 million cells; assay type: ADME, cell-based; conditions: 0.5 h
[8] = Ratio of drug level in Fisher 344 rat brain to rat 9L tumor cells implanted in Fisher 344 rat after 30 mins; assay type: ADME, cell-based; conditions: 0.5 h
[9] = Ratio of drug level in Fisher 344 rat brain to rat 9L tumor cells implanted in Fisher 344 rat after 15 mins; assay type: ADME, cell-based; conditions: 0.25 h

Ratio [1]: 26
tissue uptake [2]: 0.04 %ID/g
tissue uptake at 0.5 h [3]: 0.66 %ID/g
Ratio [4]: 14
tissue uptake at 0.25 h [5]: 0.51 %ID/g
tissue uptake at 1 h [6]: 0.65 %ID/g
tissue uptake at 2 h [7]: 0.6 %ID/g
Drug uptake (9L): 3.3%
Ratio [8]: 17
Ratio [9]: 12
Structure (SMILES): N[C@@]1(C(=O)O)CC[C@@H]1[18F]

Structure (SMILES): N[C@]1(C(=O)O)C[C@@H](C[18F])C1
Ratio [8]: 8.9

Structure (SMILES): N[C@]1(C(=O)O)C[C@H](C[18F])C1
Ratio [8]: 6.9

Ratio [8]: 7.6
Structure (SMILES): N[C@]1(C(=O)O)C[C@H]([18F])C1

Ratio [8]: 6.6
Structure (SMILES): N[C@]1(C(=O)O)C[C@@H]([18F])C1 [FLUCICLOVINE F18]
